# Measured values published in ChEMBL document CHEMBL4831500, “Discovery of first-in-class imidazothiazole-based potent and selective ErbB4 (HER4) kinase inhibitors” (Eur J Med Chem, 2021).
# Assays:
# [1] = molecular target: Epidermal growth factor receptor (Homo sapiens, UniProt P00533, L858R/T790M); experiment: Inhibition of EGFR T790M/L858R mutant (unknown origin) incubated for 40 mins in presence of Mg/ATP mix by [gamma p33]-ATP based scintillation counting method
# [2] = tested on: Panel NCI-60 (60 carcinoma cell lines); experiment: Growth inhibition of human panel NCI-60 (60 carcinoma cells) assessed as growth percent at 10 uM measured after 48 hrs by SRB assay relative to control; format: functional; conditions: read-out: Activity
# [3] = molecular target: T1, RAF proto-oncogene serine/threonine-protein kinase (Homo sapiens, UniProt P04049); experiment: Inhibition of RAF1 (unknown origin) incubated for 40 mins in presence of Mg/ATP mix by [gamma p33]-ATP based scintillation counting method
# T1 sequence (P04049 whole entry): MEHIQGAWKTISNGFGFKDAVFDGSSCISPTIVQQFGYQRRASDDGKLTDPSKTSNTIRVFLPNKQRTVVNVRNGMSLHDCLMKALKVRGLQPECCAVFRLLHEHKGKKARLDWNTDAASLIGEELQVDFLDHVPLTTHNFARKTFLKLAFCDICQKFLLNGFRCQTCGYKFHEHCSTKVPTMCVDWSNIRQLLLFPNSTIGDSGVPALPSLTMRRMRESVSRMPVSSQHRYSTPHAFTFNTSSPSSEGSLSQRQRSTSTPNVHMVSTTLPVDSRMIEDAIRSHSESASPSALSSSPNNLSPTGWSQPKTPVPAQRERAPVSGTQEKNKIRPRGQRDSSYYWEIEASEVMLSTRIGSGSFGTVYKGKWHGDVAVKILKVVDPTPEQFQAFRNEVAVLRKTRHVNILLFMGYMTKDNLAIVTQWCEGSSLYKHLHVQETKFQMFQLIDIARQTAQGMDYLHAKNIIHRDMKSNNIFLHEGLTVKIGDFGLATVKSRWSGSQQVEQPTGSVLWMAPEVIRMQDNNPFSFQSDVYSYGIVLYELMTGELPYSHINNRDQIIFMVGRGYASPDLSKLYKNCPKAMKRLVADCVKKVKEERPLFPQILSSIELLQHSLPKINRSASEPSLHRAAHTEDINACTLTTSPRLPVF
# [4] = molecular target: Voltage-gated inwardly rectifying potassium channel KCNH2 (Homo sapiens, UniProt Q12809); experiment: Inhibition of human ERG incubated for 3 hrs by competitive fluorescence tracer binding based assay
# [5] = molecular target: Dual specificity mitogen-activated protein kinase kinase 2 (Homo sapiens, UniProt P36507); experiment: Inhibition of MEK2 (unknown origin) incubated for 40 mins in presence of Mg/ATP mix by [gamma p33]-ATP based scintillation counting method
# CYP3A4 = CYP3A4 (Homo sapiens, UniProt P08684); experiment: Potency index, ratio of test compound IC50 to ketoconazole IC50 for inhibition of CYP3A4 (unknown origin) using BOMCC as a substrate incubated for 20 mins by fluorescence based analysis; format: ADME; conditions: probe BOMCC
# [6] = molecular target: Receptor-type tyrosine-protein kinase FLT3 (Homo sapiens, UniProt P36888); experiment: Inhibition of FLT-3(unknown origin) incubated for 40 mins in presence of Mg/ATP mix by [gamma p33]-ATP based scintillation counting method
# [7] = molecular target: Epidermal growth factor receptor (Homo sapiens, UniProt P00533, T790M); experiment: Inhibition of EGFR- T790M mutant (unknown origin) incubated for 40 mins in presence of Mg/ATP mix by [gamma p33]-ATP based scintillation counting method
# [8] = molecular target: T2, Receptor tyrosine-protein kinase erbB-4 (Homo sapiens, UniProt Q15303); experiment: Inhibition of ErbB4 (unknown origin) at 10 uM incubated for 40 mins in presence of Mg/ATP mix by [gamma p33]-ATP based scintillation counting method relative to control
# T2 sequence (Q15303 whole entry): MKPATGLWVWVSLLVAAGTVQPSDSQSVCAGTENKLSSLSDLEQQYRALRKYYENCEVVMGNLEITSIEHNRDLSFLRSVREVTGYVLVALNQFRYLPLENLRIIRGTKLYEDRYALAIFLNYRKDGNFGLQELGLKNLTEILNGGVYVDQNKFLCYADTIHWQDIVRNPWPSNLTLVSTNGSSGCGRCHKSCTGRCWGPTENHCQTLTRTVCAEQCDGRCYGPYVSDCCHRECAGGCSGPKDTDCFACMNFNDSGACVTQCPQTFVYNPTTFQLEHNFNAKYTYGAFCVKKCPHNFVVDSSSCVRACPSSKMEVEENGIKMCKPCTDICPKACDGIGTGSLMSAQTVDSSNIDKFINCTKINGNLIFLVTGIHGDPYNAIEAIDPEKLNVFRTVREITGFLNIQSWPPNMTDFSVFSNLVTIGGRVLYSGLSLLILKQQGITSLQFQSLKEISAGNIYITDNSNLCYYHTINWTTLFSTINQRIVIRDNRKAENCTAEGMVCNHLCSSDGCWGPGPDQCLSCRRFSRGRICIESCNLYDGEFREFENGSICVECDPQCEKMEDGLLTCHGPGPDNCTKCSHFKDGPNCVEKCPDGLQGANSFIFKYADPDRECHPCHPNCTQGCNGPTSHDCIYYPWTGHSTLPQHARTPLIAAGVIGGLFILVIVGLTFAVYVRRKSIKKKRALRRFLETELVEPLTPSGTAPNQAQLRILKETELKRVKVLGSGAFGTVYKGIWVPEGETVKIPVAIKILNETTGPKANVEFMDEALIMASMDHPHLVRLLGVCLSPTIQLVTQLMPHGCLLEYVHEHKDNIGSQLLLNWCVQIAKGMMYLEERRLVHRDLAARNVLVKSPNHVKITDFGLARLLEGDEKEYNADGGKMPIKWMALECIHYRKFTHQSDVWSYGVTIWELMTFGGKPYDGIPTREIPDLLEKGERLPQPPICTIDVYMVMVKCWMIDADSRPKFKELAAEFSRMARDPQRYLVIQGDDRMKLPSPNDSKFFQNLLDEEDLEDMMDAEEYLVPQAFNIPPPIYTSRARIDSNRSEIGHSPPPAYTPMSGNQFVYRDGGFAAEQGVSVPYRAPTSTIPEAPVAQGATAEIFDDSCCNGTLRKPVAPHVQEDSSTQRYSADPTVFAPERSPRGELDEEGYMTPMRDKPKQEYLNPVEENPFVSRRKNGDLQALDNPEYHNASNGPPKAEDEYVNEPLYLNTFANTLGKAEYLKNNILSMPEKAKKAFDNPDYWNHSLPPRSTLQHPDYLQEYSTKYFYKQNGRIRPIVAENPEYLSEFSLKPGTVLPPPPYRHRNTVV
# hERG (KCNH2) = hERG (KCNH2) (Homo sapiens, UniProt Q12809); experiment: Safety index, ratio of test compound IC50 to E-4031 IC50 for inhibition of human ERG incubated for 3 hrs by competitive fluorescence tracer binding based assay; conditions: read-out: Ratio IC50
# Homo sapiens = species: Homo sapiens; experiment: Selectivity ratio of IC50 for inhibition of EFGR-T790M mutant (unknown origin) to IC50 for ErbB4 (unknown origin); conditions: time 40.0 min
# Cytochrome P450 2D6 = Cytochrome P450 2D6 (Homo sapiens, UniProt P10635); experiment: Inhibition of CYP2D6 (unknown origin) using EOMCC as a substrate incubated for 20 mins by fluorescence based analysis; format: ADME
# Cytochrome P450 3A4 = Cytochrome P450 3A4 (Homo sapiens, UniProt P08684); experiment: Inhibition of CYP3A4 (unknown origin) using BOMCC as a substrate incubated for 20 mins by fluorescence based analysis; format: ADME
# [9] = molecular target: T3, Serine/threonine-protein kinase B-raf (Homo sapiens, UniProt P15056); experiment: Inhibition of wild type B-RAF (unknown origin) incubated for 40 mins in presence of Mg/ATP mix by [gamma p33]-ATP based scintillation counting method
# T3 sequence (P15056 whole entry): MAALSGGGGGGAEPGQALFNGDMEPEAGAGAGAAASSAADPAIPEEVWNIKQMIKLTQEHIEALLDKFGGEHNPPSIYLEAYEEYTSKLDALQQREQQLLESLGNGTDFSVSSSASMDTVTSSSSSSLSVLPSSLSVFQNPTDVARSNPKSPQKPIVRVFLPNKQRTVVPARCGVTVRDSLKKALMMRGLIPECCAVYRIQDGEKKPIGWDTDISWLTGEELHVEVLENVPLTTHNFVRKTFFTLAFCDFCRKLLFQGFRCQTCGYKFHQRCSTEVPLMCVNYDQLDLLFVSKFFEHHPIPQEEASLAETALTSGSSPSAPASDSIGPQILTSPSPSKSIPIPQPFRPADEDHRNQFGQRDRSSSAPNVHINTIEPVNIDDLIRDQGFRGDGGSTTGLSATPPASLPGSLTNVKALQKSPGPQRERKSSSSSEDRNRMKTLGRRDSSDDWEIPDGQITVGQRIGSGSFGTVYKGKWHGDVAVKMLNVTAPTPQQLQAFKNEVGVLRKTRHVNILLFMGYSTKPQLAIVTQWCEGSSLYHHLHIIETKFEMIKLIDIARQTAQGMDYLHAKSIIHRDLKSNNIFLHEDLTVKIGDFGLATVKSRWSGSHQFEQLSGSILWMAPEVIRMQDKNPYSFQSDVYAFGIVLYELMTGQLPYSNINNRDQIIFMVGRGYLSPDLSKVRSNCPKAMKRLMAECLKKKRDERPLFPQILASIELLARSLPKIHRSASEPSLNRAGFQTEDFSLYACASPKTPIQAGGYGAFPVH
# [10] = molecular target: T4, Vascular endothelial growth factor receptor 2 (Homo sapiens, UniProt P35968); experiment: Inhibition of KDR (unknown origin) incubated for 40 mins in presence of Mg/ATP mix by [gamma p33]-ATP based scintillation counting method
# T4 sequence (P35968 whole entry): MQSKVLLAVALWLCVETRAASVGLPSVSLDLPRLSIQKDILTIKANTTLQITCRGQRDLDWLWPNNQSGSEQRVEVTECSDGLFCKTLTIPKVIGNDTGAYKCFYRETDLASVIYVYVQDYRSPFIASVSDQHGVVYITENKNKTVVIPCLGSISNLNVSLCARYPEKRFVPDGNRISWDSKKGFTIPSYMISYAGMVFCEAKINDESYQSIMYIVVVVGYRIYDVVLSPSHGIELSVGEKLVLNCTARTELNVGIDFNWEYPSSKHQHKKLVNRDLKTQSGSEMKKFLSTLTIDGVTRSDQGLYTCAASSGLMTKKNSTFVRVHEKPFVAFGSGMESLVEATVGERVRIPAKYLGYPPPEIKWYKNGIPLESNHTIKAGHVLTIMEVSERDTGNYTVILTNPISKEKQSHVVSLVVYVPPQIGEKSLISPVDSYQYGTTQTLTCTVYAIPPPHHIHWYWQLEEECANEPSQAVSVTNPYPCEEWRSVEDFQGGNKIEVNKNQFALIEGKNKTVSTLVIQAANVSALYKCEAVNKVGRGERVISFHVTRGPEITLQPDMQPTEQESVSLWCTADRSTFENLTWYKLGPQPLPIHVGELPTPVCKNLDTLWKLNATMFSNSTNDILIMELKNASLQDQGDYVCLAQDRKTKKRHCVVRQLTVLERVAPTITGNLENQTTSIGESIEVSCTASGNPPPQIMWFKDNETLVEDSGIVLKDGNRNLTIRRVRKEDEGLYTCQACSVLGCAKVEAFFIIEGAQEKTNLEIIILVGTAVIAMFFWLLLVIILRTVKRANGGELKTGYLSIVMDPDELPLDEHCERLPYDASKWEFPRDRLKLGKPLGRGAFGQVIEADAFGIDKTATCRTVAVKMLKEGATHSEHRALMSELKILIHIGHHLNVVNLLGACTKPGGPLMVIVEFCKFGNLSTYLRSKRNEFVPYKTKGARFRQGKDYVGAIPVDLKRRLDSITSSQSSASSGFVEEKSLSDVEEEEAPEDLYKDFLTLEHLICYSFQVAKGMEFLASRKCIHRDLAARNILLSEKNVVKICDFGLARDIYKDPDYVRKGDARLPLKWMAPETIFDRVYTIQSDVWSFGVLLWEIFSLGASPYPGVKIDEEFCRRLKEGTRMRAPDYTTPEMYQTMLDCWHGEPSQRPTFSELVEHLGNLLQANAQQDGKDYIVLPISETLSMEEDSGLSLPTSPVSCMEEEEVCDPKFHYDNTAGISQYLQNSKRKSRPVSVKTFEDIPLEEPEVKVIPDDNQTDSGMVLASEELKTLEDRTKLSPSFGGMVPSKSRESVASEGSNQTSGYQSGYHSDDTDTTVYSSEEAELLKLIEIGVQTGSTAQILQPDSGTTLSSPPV
# [11] = molecular target: Serine/threonine-protein kinase B-raf (Homo sapiens, UniProt P15056, V600E); experiment: Inhibition of BRAF V600E mutant (unknown origin) incubated for 40 mins in presence of Mg/ATP mix by [gamma p33]-ATP based scintillation counting method
# [12] = molecular target: Epidermal growth factor receptor (Homo sapiens, UniProt P00533, L861Q); experiment: Inhibition of EGFR- L861Q mutant (unknown origin) incubated for 40 mins in presence of Mg/ATP mix by [gamma p33]-ATP based scintillation counting method
# [13] = molecular target: T2, Receptor tyrosine-protein kinase erbB-4; experiment: Inhibition of ErbB4 (unknown origin) incubated for 40 mins in presence of Mg/ATP mix by [gamma p33]-ATP based scintillation counting method
# [14] = molecular target: Serine/threonine-protein kinase A-Raf (Homo sapiens, UniProt P10398); experiment: Inhibition of A-RAF (unknown origin) incubated for 40 mins in presence of Mg/ATP mix by [gamma p33]-ATP based scintillation counting method
# [15] = molecular target: Epidermal growth factor receptor (Homo sapiens, UniProt P00533); experiment: Inhibition of EGFR (unknown origin) at 10 uM incubated for 40 mins in presence of Mg/ATP mix by [gamma p33]-ATP based scintillation counting method relative to control
# HL-60(TB) [16] = experiment: Antiproliferative activity against human HL-60(TB) cells assessed as cell growth inhibition at 10 uM measured after 48 hrs by SRB assay relative to control; format: functional
# [17] = molecular target: Receptor tyrosine-protein kinase erbB-2 (Homo sapiens) (UniProt P04626); experiment: Inhibition of ErbB2 (unknown origin) at 10 uM incubated for 40 mins in presence of Mg/ATP mix by [gamma p33]-ATP based scintillation counting method relative to control
# UO-31 [18] = experiment: Antiproliferative activity against human UO-31 cells assessed as cell growth inhibition at 10 uM measured after 48 hrs by SRB assay relative to control; format: functional
# SNB-75 [19] = experiment: Antiproliferative activity against human SNB-75 cells assessed as cell growth inhibition at 10 uM measured after 48 hrs by SRB assay relative to control; format: functional
# SK-MEL-5 [20] = experiment: Antiproliferative activity against human SK-MEL-5 cells assessed as cell growth inhibition measured after 48 hrs by SRB assay; format: functional, cell-based; conditions: SK-MEL-5, 48 h
# MDA-MB-468 [21] = experiment: Antiproliferative activity against human MDA-MB-468 cells assessed as cell growth inhibition at 10 uM measured after 48 hrs by SRB assay relative to control; format: functional
# SNB-75 [22] = experiment: Antiproliferative activity against human SNB-75 cells assessed as cell growth inhibition measured after 48 hrs by SRB assay; format: functional, cell-based; conditions: SNB-75, 48 h
# HL-60(TB) [23] = experiment: Antiproliferative activity against human HL-60(TB) cells assessed as cell growth inhibition measured after 48 hrs by SRB assay; format: functional, cell-based; conditions: HL-60, 48 h
# DU-145 [24] = experiment: Antiproliferative activity against human DU-145 cells assessed as cell growth inhibition measured after 48 hrs by SRB assay; format: functional, cell-based; conditions: DU-145, 48 h
# [25] = Cytotoxicity against human WI-38 cells assessed as cell growth inhibition at 10 uM measured after 48 hrs by SRB assay relative to control; format: cell-based
# [26] = molecular target: Proto-oncogene tyrosine-protein kinase Src (Homo sapiens) (UniProt P12931); experiment: Inhibition of C-SRC (unknown origin) at 10 uM incubated for 40 mins in presence of Mg/ATP mix by [gamma p33]-ATP based scintillation counting method relative to control
# [27] = tested on: Serine/threonine-protein kinase B-raf (Homo sapiens), P15056 [V600E]; experiment: Inhibition of BRAF V600E mutant (unknown origin) at 10 uM incubated for 40 mins in presence of Mg/ATP mix by [gamma p33]-ATP based scintillation counting method relative to control
# Sequence of Serine/threonine-protein kinase B-raf (Homo sapiens), P15056 [V600E] (P15056 whole entry V600E): as the sequence (P15056 whole entry) above, with V600E counted along it
# DU-145 [28] = experiment: Antiproliferative activity against human DU-145 cells assessed as cell growth inhibition at 10 uM measured after 48 hrs by SRB assay relative to control; format: functional
# NCI-H322M = experiment: Antiproliferative activity against human NCI-H322M cells assessed as cell growth inhibition measured after 48 hrs by SRB assay; format: functional, cell-based
# WI-38 = experiment: Cytotoxicity against human WI-38 cells assessed as cell growth inhibition measured after 48 hrs by SRB assay; format: cell-based; conditions: WI-38, 48 h
# OVCAR-4 [29] = experiment: Antiproliferative activity against human OVCAR-4 cells assessed as cell growth inhibition measured after 48 hrs by SRB assay; format: functional, cell-based; conditions: OVCAR-4, 48 h
# OVCAR-4 [30] = experiment: Antiproliferative activity against human OVCAR-4 cells assessed as cell growth inhibition at 10 uM measured after 48 hrs by SRB assay relative to control; format: functional
# SK-MEL-5 [31] = experiment: Antiproliferative activity against human SK-MEL-5 cells assessed as cell growth inhibition at 10 uM measured after 48 hrs by SRB assay relative to control; format: functional
# MDA-MB-468 [32] = experiment: Antiproliferative activity against human MDA-MB-468 cells assessed as cell growth inhibition measured after 48 hrs by SRB assay; format: functional, cell-based; conditions: MDA-MB-468, 48 h
# [33] = molecular target: T4, Vascular endothelial growth factor receptor 2; experiment: Inhibition of KDR (unknown origin) at 10 uM incubated for 40 mins in presence of Mg/ATP mix by [gamma p33]-ATP based scintillation counting method relative to control
# [34] = molecular target: T3, Serine/threonine-protein kinase B-raf; experiment: Inhibition of wild type B-RAF (unknown origin) at 10 uM incubated for 40 mins in presence of Mg/ATP mix by [gamma p33]-ATP based scintillation counting method relative to control
# UO-31 [35] = experiment: Antiproliferative activity against human UO-31 cells assessed as cell growth inhibition measured after 48 hrs by SRB assay; format: functional, cell-based; conditions: UO-31, 48 h
# [36] = molecular target: Fibroblast growth factor receptor 1 (Homo sapiens) (UniProt P11362); experiment: Inhibition of FGFR1 (unknown origin) at 10 uM incubated for 40 mins in presence of Mg/ATP mix by [gamma p33]-ATP based scintillation counting method relative to control
# Sequence of Fibroblast growth factor receptor 1 (Homo sapiens) (P11362 22-822 limits assumed): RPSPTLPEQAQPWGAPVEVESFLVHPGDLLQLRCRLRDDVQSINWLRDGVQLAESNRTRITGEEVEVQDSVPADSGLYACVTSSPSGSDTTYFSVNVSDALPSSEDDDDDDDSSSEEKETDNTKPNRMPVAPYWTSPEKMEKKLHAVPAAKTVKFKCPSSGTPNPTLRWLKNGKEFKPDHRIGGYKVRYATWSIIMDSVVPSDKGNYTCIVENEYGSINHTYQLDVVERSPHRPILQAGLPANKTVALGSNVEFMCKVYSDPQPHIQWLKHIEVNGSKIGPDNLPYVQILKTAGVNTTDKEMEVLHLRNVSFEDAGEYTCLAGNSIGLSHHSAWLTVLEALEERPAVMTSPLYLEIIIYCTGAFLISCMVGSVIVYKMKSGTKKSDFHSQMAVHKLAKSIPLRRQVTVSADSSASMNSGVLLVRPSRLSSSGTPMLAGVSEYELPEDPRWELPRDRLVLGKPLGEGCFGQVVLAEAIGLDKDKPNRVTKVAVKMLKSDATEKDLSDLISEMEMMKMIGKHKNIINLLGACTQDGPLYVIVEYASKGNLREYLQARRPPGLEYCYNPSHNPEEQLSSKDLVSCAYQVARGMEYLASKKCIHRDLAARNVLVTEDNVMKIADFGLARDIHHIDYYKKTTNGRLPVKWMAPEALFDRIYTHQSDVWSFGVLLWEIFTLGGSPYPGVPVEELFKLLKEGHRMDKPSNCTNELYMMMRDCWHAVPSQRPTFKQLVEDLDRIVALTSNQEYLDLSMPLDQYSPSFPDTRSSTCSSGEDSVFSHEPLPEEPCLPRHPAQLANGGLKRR
# [37] = molecular target: T1, RAF proto-oncogene serine/threonine-protein kinase; experiment: Inhibition of RAF1 (unknown origin) at 10 uM incubated for 40 mins in presence of Mg/ATP mix by [gamma p33]-ATP based scintillation counting method relative to control
compound,measurement,setting,value
c1ccc(COc2cccc(-c3nc4sccn4c3-c3ccncn3)c2)cc1,IC50,[1],8560 nM
same,growth at 10 µM,[2],78.4%
same,IC50,[3],2030 nM
same,IC50,[4],12800 nM
same,IC50,[5],3250 nM
same,selectivity ratio at 20 min,CYP3A4,8790
same,IC50,[6],1360 nM
same,IC50,[7],380 nM
same,inhibition,[8],> 60%
same,selectivity ratio at 3 h,hERG (KCNH2),530
same,Selectivity Index,Homo sapiens,21.5
same,IC50,Cytochrome P450 2D6,> 90000 nM
same,IC50,Cytochrome P450 3A4,20900 nM
same,IC50,[9],1000 nM
same,IC50,[10],710 nM
same,IC50,[11],1590 nM
same,IC50,[12],4350 nM
same,IC50,[13],17.7 nM
same,IC50,[14],7060 nM
CS(=O)(=O)c1nccc(-c2c(-c3cccc(OCc4ccc(F)cc4)c3)nc3sccn23)n1,inhibition,[15],-5.54%
same,inhibition at 10 µM,HL-60(TB) [16],56.3%
same,inhibition,[17],-2.99%
same,growth at 10 µM,[2],60.6%
same,inhibition at 10 µM,UO-31 [18],124%
same,inhibition at 10 µM,SNB-75 [19],4.08%
same,IC50,SK-MEL-5 [20],1540 nM
same,inhibition at 10 µM,MDA-MB-468 [21],164%
same,IC50,SNB-75 [22],15600 nM
same,IC50,HL-60(TB) [23],3360 nM
same,IC50,DU-145 [24],1890 nM
same,"inhibition at 48 h, 10 µM",[25],21.6%
same,inhibition,[8],60.2%
same,inhibition,[26],2.46%
same,inhibition,[27],33.6%
same,inhibition at 10 µM,DU-145 [28],154%
same,IC50,NCI-H322M,1820 nM
same,IC50,WI-38,12600 nM
same,IC50,OVCAR-4 [29],3980 nM
same,inhibition at 10 µM,OVCAR-4 [30],34.9%
same,inhibition at 10 µM,SK-MEL-5 [31],94.6%
same,IC50,MDA-MB-468 [32],1800 nM
same,inhibition,[33],24.8%
same,inhibition,[34],9.62%
same,IC50,UO-31 [35],1680 nM
same,inhibition,[36],-0.04%
same,inhibition,[37],10.8%
